Data from PMC6161302, “Oral Bioavailability of Kinsenoside in Beagle Dogs Measured by LC-MS/MS: Improvement of Ex Vivo Stability of a Lactone-Containing Compound” (Pharmaceutics, 2018).
Read-outs that look alike come from different tables or passages of the source.

Tests used:
liver microsomal enzyme = system: liver microsomal enzyme; parameters: method as in doi:10.5478/MSL.2015.6.2.48; settings: cited from earlier work
[1] = Stability of KD in fresh dog plasma; type: in vitro ADME, beagle dog
Protocol: (§1) The stability of KD in fresh dog whole blood and plasma was studied by decreasing pH, lowering temperature, and adding different esterase inhibitors. All experiments were performed in triplicate using three different lots of fresh dog whole blood or plasma. To decrease the pH of the matrixes, 1% formic acid (FA) or 1% AA was individually added to the fresh blank whole blood or plasma with a ratio of 1:9. Likewise, DDVP, NaF, and PMSF were separately added to fresh blank whole blood or plasma to obtain a final concentration of 50 mM. After 5 min pre-incubation, KD was spiked with pretreated whole blood or plasma to obtain final concentrations of 15, 150, and 1500 ng/mL. The whole blood mixture was maintained at room temperature or on wet ice for 2 h except for samples of time zero, which were centrifuged immediately to collect plasma, while the plasma mixture was maintained at room temperature or on wet ice for 0, 2, and 6 h. Then, the obtained plasma samples were cleaned up using the previously mentioned sample preparation procedures. The remaining percentage of KD was calculated by dividing the plasma concentration of KD under different incubation conditions by the concentration of time zero samples [13].

[2] = Method-validation stability of kinsenoside in beagle dog plasma under various storage conditions; type: in vitro ADME
Protocol: The stability of stock solutions (2.5 mg/mL for KD and 1 mg/mL for IS) and working solutions (125 and 50,000 ng/mL for KD and 500 ng/mL for IS) was evaluated at room temperature for 6 h and at −80 °C for 31 days. The matrix stability was evaluated from three replicates of each QC sample stored in different conditions using freshly prepared calibration standards. The QC samples were analyzed after storage on wet ice for 2 h (short-term stability) and at −80 °C for 21 days (long-term stability). The freeze–thaw stability was determined after freezing at −80 °C and thawing on wet ice for three cycles. To evaluate the post-preparative stability, QC samples were analyzed after being held in the autosampler for 24 h at 4 °C. The samples for stability evaluation were considered stable if the deviation was within ±15% of the nominal concentration.

[3] = Pharmacokinetic and bioavailability study of KD in beagle dogs (intravenous and oral); type: in vivo, beagle dog; settings: for Tmax / AUC(0-t): beagle; for k el: read-out: λz (converted)
Description: The validated method was applied to a preclinical pharmacokinetic and bioavailability study of KD in beagle dogs following intravenous and oral administration. The study protocol (Project ID: HUST-D-201802004) was approved on 5 March 2018 by the Animal Ethics Committee in Tongji Medical College, Huazhong University of Science and Technology (Wuhan, China). Six beagle dogs (3 males and 3 females) weighing 10.0 ± 2.0 kg were purchased from Ruikesen Experimental Animal Co., Ltd. (Wuhan, China). All dogs were individually housed at a temperature of 25 °C and 50% relative humidity under a 12 h light/dark cycle. A laboratory standard diet and water were provided ad libitum. After overnight fasting with unlimited access to water, the six beagle dogs were randomly divided into two groups. One group was intravenously injected via lateral saphenous vein with 3 mg/kg KD, while the other group was given a single oral dose of 3 mg/kg KD. After a 7-day washout period, each group received the other treatment. For intravenous administration, blood samples (approximately 1 mL) were collected via cephalic vein into 3 mL K2EDTA-containing vacutainer tubes at pre-dose and at 0.083, 0.25, 0.5, 0.75, 1, 1.25, 1.5, 2, 2.5, 3, 4, and 5 h after administration. For oral administration, blood samples (approximately 1 mL) were collected at pre-dose and at 0.25, 0.5, 0.75, 1, 1.25, 1.5, 2, 2.5, 3, 4, 5, 6, and 7 h post-dose. Blood samples were maintained on wet ice and centrifuged under 4 °C at 3500 × g for 5 min to obtain plasma. Plasma samples were immediately transferred to pre-cooled plastic Eppendorf tubes and stored at −80 °C until analyzed.
The pharmacokinetic parameters were calculated using noncompartmental analysis by Phoenix WinNonlin software (Version 6.4, Pharsight Corporation, Princeton, NC, USA). The maximum plasma concentration (Cmax) and time to reach Cmax (Tmax) were obtained directly from the plasma concentration time course. The area under the plasma concentration versus time curve (AUC) from time zero to the last measured time point (AUC0–t) and from time zero to infinity (AUC0–∞) were estimated using the log-linear trapezoidal rule, while the elimination half-life (t1/2), the total body clearance (CL), and the apparent volume of distribution (Vd) were processed by Phoenix WinNonlin software. Oral bioavailability (F) was calculated using the formula F = (AUCpo/AUCiv) × (Doseiv/Dosepo).

[4] = Stability of KD in fresh dog whole blood; type: in vitro ADME, beagle dog
Protocol: as §1

[5] = parameters: method as in PMID 26686829; settings: cited from earlier work
[6] = plasma samples after three freeze–thaw cycles, nominal 15 ng/mL
[7] = plasma samples after three freeze–thaw cycles, nominal 150 ng/mL
[8] = plasma samples after three freeze–thaw cycles, nominal 1500 ng/mL
[9] = plasma samples on wet ice for 2 h, nominal 15 ng/mL
[10] = plasma samples on wet ice for 2 h, nominal 150 ng/mL
[11] = plasma samples on wet ice for 2 h, nominal 1500 ng/mL
[12] = plasma samples stored at −80 °C for 21 days, nominal 15 ng/mL
[13] = plasma samples stored at −80 °C for 21 days, nominal 150 ng/mL
[14] = plasma samples stored at −80 °C for 21 days, nominal 1500 ng/mL
[15] = post-preparative samples stored at 4 °C for 24 h, nominal 15 ng/mL
[16] = post-preparative samples stored at 4 °C for 24 h, nominal 150 ng/mL
[17] = post-preparative samples stored at 4 °C for 24 h, nominal 1500 ng/mL
[18] = both sexes, dog, plasma, beagle dogs, intravenous, 3 mg/kg
[19] = both sexes, dog, plasma, beagle dogs, oral, 3 mg/kg

## O=C1C[C@@H](O[C@@H]2O[C@H](CO)[C@@H](O)[C@H](O)[C@H]2O)CO1 [kinsenoside, Kinsenoside]
Liver microsomal enzyme
  stability against liver microsomal enzyme-associated metabolism: stable
[1]; dog plasma, 2 h incubation on wet ice
  KD remaining: more than 90%
[1]; neutral and acidified dog plasma, 6 h incubation on wet ice
  percentage remaining of KD: around 85%
[2]; [6]
  Accuracy (stability, % of nominal): 89.53%
  Calculated Conc.: 13.43 ± 0.46 ng/mL
[2]; [7]
  Accuracy (stability, % of nominal): 90.89%
  Calculated Conc.: 136.33 ± 4.50 ng/mL
[2]; [8]
  Accuracy (stability, % of nominal): 92.44%
  Calculated Conc.: 1386.67 ± 24.94 ng/mL
[2]; [9]
  Accuracy (stability, % of nominal): 95.11%
  Calculated Conc.: 14.27 ± 0.74 ng/mL
[2]; [10]
  Accuracy (stability, % of nominal): 93.87%
  Calculated Conc.: 140.80 ± 2.98 ng/mL
[2]; [11]
  Accuracy (stability, % of nominal): 91.61%
  Calculated Conc.: 1374.13 ± 24.63 ng/mL
[2]; [12]
  Accuracy (stability, % of nominal): 90.89%
  Calculated Conc.: 13.63 ± 0.36 ng/mL
[2]; [13]
  Accuracy (stability, % of nominal): 91.78%
  Calculated Conc.: 137.67 ± 2.62 ng/mL
[2]; [14]
  Accuracy (stability, % of nominal): 93.78%
  Calculated Conc.: 1406.67 ± 26.25 ng/mL
[2]; [15]
  Accuracy (stability, % of nominal): 89.47%
  Calculated Conc.: 13.42 ± 0.37 ng/mL
[2]; [16]
  Accuracy (stability, % of nominal): 91.67%
  Calculated Conc.: 137.50 ± 4.99 ng/mL
[2]; [17]
  Accuracy (stability, % of nominal): 88.89%
  Calculated Conc.: 1333.33 ± 34.60 ng/mL
[3]; both sexes, dog, plasma, iv, 3 mg/kg, beagle dogs
  Tmax: 5 min
[3]; both sexes, dog, plasma, iv, 3 mg/kg, beagle dogs, intravenous, 3 mg/kg, read-out: AUC0–t
  AUC(0-t): 6820 ± 295 ng·h/mL
[3]; both sexes, dog, plasma, iv, 3 mg/kg, beagle dogs, intravenous, 3 mg/kg, read-out: mean AUC0-t (converted)
  AUC(0-t): 114 ng·h/mL
[3]; both sexes, dog, plasma, po, 3 mg/kg, beagle dogs
  Tmax: ~62.4 min
[3]; both sexes, dog, plasma, po, 3 mg/kg, beagle dogs, oral, 3 mg/kg, read-out: AUC0–t
  AUC(0-t): 1880 ± 17.6 ng·h/mL
[3]; both sexes, dog, plasma, po, 3 mg/kg, beagle dogs, oral, 3 mg/kg, read-out: mean AUC0-t (converted)
  AUC(0-t): 31.3 ng·h/mL
[3]; [18]
  AUC(0-inf): 6830 ± 295 ng·h/mL
  Cmax: 11400 ng/mL
  Vd: 0.3 ± 0.0171 L/kg
  clearance: 7.33 mL/min/kg
  half-life: 28.2 ± 0.78 min
  k el: 0.000408 s⁻¹
[3]; both sexes, dog, plasma, beagle dogs, oral 3 mg/kg vs intravenous 3 mg/kg, read-out: Bioavailability (absolute oral)
  bioavailability: 27.6%
[3]; [19]
  AUC(0-inf): 1910 ± 42.5 ng·h/mL
  Cmax: 965 ± 59.7 ng/mL
  half-life: 54.9 ± 5.64 min
  k el: 0.000212 s⁻¹
[3]; comparison with literature values
  bioavailability of KD relative to the majority of extensively researched isoflavone glycosides: at least 4 fold
[4]; 2 h incubation at room temperature
  KD remaining: 60%
[4]; 2 h incubation on wet ice, three concentration levels (15, 150, 1500 ng/mL)
  KD remaining: around 90%
[5]
  stability in rat plasma (ex vivo): unstable
